Results: patent US20120065199A1, “SUBSTITUTED QUINOLINES FOR USE AS VEGF INHIBITORS” (CLANOTECH AB, priority 2009, published 2012)

Key:
[1] = system: PAE cells expressing VEGFR3; experiment: Chemotaxis assay (modified Boyden chamber), PAE/VEGFR-3 toward VEGF-C; assay type: cell-based, porcine; conditions: Sus scrofa, 10 μM compound, VEGF-C as chemo-attractant, absence of serum, read-out: Chemotaxis: VEGFR-3 inhibition of cell migration (%) at 10 μM compound concentration
Protocol: (§1) Additionally, the effect of the compounds was tested in this capacity of influencing chemotaxis. The test compounds were tested in porcine aorta endothelial (PAE) cells expressing VEGFR2 and VEGFR3 (PAE/VEGFR-2 and PAE/VEGFR-3). The method used is a modified Boyden chamber assay. The migration of the PAE cells expressing VEGFR2 and VEGFR3 receptors toward VEGF-A and VEGF-C respectively used as chemo-attractant was studied through micropore polycarbonate filter and was scored in the absence of serum. The assay was performed in the presence of compounds at 10 μM.
(§2) In Table 1, data from both the cell shape assay and the chemotaxis assay are shown. Thus, under “Cell Shape: PAE/VEGFR-2 with VEGF antagonist conc. (μM)” and “Cell Shape: PAE/VEGFR-3 with VEGF antagonist conc. (μM)” the concentration of the indicated inventive compound that gave restitution of cell morphology in the cell shape assay is shown. Data under “Chemotaxis: VEGFR-2% inhibition of cell migration” and “Chemotaxis: VEGFR-3% inhibition of cell migration” show the percentage inhibition of PAE cells expressing VEGFR-2 or 3 in the presence of 10 μM of the indicated inventive compound.

[2] = system: PAE/VEGFR-2 cells; experiment: Cell shape assay, PAE/VEGFR-2 cells with VEGF-A; assay type: cell-based, porcine
Protocol: (§3) One of the used assays comprised a culture of PAE/VEGFR-2 and PAE/VEGFR3 cells. Morphological changes of the cells were recorded microscopically after addition of VEGF-A and VEGF-C respectively, followed by the test compound at a final concentration up to 100 μM. Growth inhibitions of the PAE/VEGFR-2 cells were detected in the presence of the compound of Example 1 according to the invention at 10 μM or lower. Furthermore, the inventive compounds were tested in PAE/VEGFR-3 cells and morphological changes of the cells were recorded microscopically after addition of the VEGF-C, followed by the test compound at a final concentration up to 100 μM. Growth inhibitions of the PAE/VEGFR-3 cells were detected in the presence of several of Examples according to the invention. The compounds were tested at 10, 50 and 100 μM. The effect of the test compounds in Table 1 is expressed as concentration of compound that inhibits the cell morphology induced by VEGF A and VEGF C. No effect means that no morphological changes were seen up to 100 μM compound concentrations.
as §2

[3] = system: PAE cells expressing VEGFR2; experiment: Chemotaxis assay (modified Boyden chamber), PAE/VEGFR-2 toward VEGF-A; assay type: cell-based, porcine; conditions: VEGF-A as chemo-attractant, absence of serum; for inhibition at 10 µM: Sus scrofa, PAE, 10 μM compound, read-out: Chemotaxis: VEGFR-2 inhibition of cell migration (%) at 10 μM compound concentration
Protocol: as §1, §2

[4] = system: PAE/VEGFR-3 cells; experiment: Cell shape assay, PAE/VEGFR-3 cells with VEGF-C; assay type: cell-based, porcine; conditions: VEGF-C induced cell morphology, tested at 10, 50 and 100 μM, No effect = no morphological changes up to 100 μM; for minimal effective concentration: Sus scrofa, read-out: Cell Shape: PAE/VEGFR-3 with VEGF antagonist conc. (μM) that gives inhibition
Protocol: as §3, §2

[5] = system: T241 wt mouse fibrosarcoma tumor cells; experiment: Tumor synograft model; assay type: in vivo, C57B1 mice; conditions: oral administration 25 mg/kg/day for 10 days, subcutaneous T241 tumors in mice, compared with vehicle
Protocol: FIG. 1 is a plot of the tumor volume (mL) in mice having received subcutaneously implanted T241 wt mouse fibrosarcoma tumor cells, as a function of days of therapy by oral administration at 25 mg/kg/day of the compound of Example 1 of the invention. This is compared to administration of vehicle only.
Female 6-week-old C57B1 mice were used for tumor studies. […] T241 wt mouse fibrosarcoma tumor cells growing in logarithmic phase were harvested and resuspended in media, and a single cell solution in a volume of 100 μL was implanted subcutaneously at the right flank of each animal. 6 Mice were used in the treated groups and 6 mice were used in the control groups. Systemic treatment by oral administration injections with either 50 μl of vehicle or the inventive compound (the compound of Example 1) (25 mg/kg/day) was begun at day at day 0 (zero). The inventive compound was administrated for 10 days. Visible tumors were present day 5-10 after implantation. Primary tumors were measured with digital calipers on the days indicated. Tumor volumes were calculated according to the formula: Length×width^2×0.52 as reported. […] It takes a significant number of days for the treated animals to reach the same tumor volume as the vehicle treated animals.

[6] = VEGF-A induced cell morphology, tested at 10, 50 and 100 μM, No effect = no morphological changes up to 100 μM

SMILES	inhibition at 10 µM [1] [%]	Cell Shape: PAE/VEGFR-2 with VEGF antagonist conc. (μM) that gives inhibition [2, 6]	Chemotaxis: VEGFR-2 inhibition of cell migration (%) at 10 μM compound concentration [3]	minimal effective concentration [4] [µM]	inhibition at 10 µM [3] [%]	Cell Shape: PAE/VEGFR-3 with VEGF antagonist conc. (μM) that gives inhibition [4]	minimal effective concentration ([2]; Sus scrofa, VEGF-A induced cell morphology, tested at 10, 50 and 100 μM, No effect = no morphological changes up to 100 μM, read-out: Cell Shape: PAE/VEGFR-2 with VEGF antagonist conc. (μM) that gives inhibition) [µM]	Concentration at which growth inhibitions of the PAE/VEGFR-2 cells were detected ([2]; after addition of VEGF-A, final concentration up to 100 μM) [µM]	Tumor volume, effectiveness in the animal model (FIG. 1) [5]
CNC(=O)c1ccc2ncc(C(=O)OCCn3ccnc3)c(Nc3ccc(F)cc3)c2c1 [Example 13, 4-(4-Fluoro-phenylamino)-6-methylcarbamoyl-quinoline-3-carboxylic acid 2-imidazol-1-yl-ethylester]	27	No effect	No effect	50	–	–	–	–	–
CNC(=O)c1ccc2ncc(C(=O)OCc3oc(=O)oc3C)c(Nc3ccc(OC)cc3)c2c1 [Example 12, (5-Methyl-2-oxo-1,3-dioxol-4-yl)methyl 4-[(4-methoxyphenyl)amino]-6-(methylcarbamoyl)quinoline-3-carboxylate]	46	No effect	No effect	100	–	–	–	–	–
CNC(=O)c1ccc2ncc(C(=O)OCC(=O)N(C)C)c(Nc3ccc(OC)cc3)c2c1 [Example 5, 2-(dimethylamino)-2-oxoethyl-4-(4-methoxyphenylamino)-6-(methyl-carbamoyl)quinoline-3-carboxylate]	64	No effect	–	100	2	–	–	–	–
CNC(=O)c1ccc2ncc(C(=O)OCN(C)C(=O)c3ccccc3)c(Nc3ccc(OC)cc3)c2c1 [Example 3, (N-methylbenzamido)methyl 4-(4-methoxyphenylamino)-6-(methylcarbamoyl)-quinoline-3-carboxylate]	36	No effect	–	–	28	No effect	–	–	–
CNC(=O)c1ccc2ncc(C(=O)OCCN3CCOCC3)c(Nc3ccc(OC)cc3)c2c1 [Example 11, 2-Morpholinoethyl 4-[(4-methoxyphenyl)amino]-6-(methylcarbamoyl)-quinoline-3-carboxylate]	83	No effect	–	10	10	–	–	–	–
CNC(=O)c1ccc2ncc(C(=O)OCn3ccnc3)c(Nc3ccc(F)cc3)c2c1 [Example 14, 4-(4-Fluoro-phenylamino)-6-methylcarbamoyl-quinoline-3-carboxylic acid imidazol-1-yl-methylester]	30	No effect	No effect	50	–	–	–	–	–
CNC(=O)c1ccc2ncc(C(=O)OCCN(C)C)c(Nc3ccc(OC)cc3)c2c1 [Example 4, 2-(dimethylamino)ethyl 4-(4-methoxyphenylamino)-6-(methylcarbamoyl)-quinoline-3-carboxylate]	63	No effect	–	100	21	–	–	–	–
CNC(=O)c1ccc2ncc(C(=O)OC(C)C(=O)OC)c(Nc3ccc(OC)cc3)c2c1 (stereo not shown) [Example 6, (2-Methoxy-1-methyl-2-oxo-ethyl) 4-[(4-methoxyphenyl)amino]-6-(methylcarbamoyl)quinoline-3-carboxylate]	69	No effect	–	50	23	–	–	–	–
CNC(=O)c1ccc2ncc(C(=O)OCCN3CCOCC3)c(Nc3ccc(F)cc3)c2c1 [Example 15, 2-Morpholinoethyl 4-[(4-fluorophenyl)amino]-6-(methylcarbamoyl)quinoline-3-carboxylate]	59	No effect	–	100	31	–	–	–	–
CNC(=O)c1ccc2ncc(C(=O)OCOC(C)=O)c(Nc3ccc(OC)cc3)c2c1 [Example 7, Acetoxymethyl 4-[(4-methoxyphenyl)amino]-6-(methylcarbamoyl)quinoline-3-carboxylate]	25	No effect	No effect	50	–	–	–	–	–
CNC(=O)c1ccc2ncc(C(=O)OC(C)C(=O)O)c(Nc3ccc(OC)cc3)c2c1 (stereo not shown) [Example 9, 2-[4-[(4-Methoxyphenyl)amino]-6-(methylcarbamoyl)quinoline-3-carbonyl]oxypropanoic Acid]	52	No effect	–	–	38	No effect	–	–	–
CNC(=O)c1ccc2ncc(C(=O)OCN(C)C(=O)OC)c(Nc3ccc(OC)cc3)c2c1 [Example 2, (Methoxycarbonyl(methyl)amino)methyl 4-(4-methoxyphenylamino)-6-(methylcarbamoyl)quinoline-3-carboxylate]	45	No effect	–	–	39	No effect	–	–	–
CNC(=O)c1ccc2ncc(C(=O)OCn3ccnc3)c(Nc3ccc(OC)cc3)c2c1 [Example 1, (1H-imidazol-1-yl)methyl 4-(4-methoxyphenylamino)-6-(methylcarbamoyl)-quinoline-3-carboxylate]	53	–	–	–	52	–	10	≤ 10	convincing results for its effectiveness
CNC(=O)c1ccc2ncc(C(=O)OCCn3ccnc3)c(Nc3ccc(OC)cc3)c2c1 [Example 10, 2-Imidazol-1-ylethyl 4-[(4-methoxyphenyl)amino]-6-(methylcarbamoyl)-quinoline-3-carboxylate]	53	No effect	–	10	32	–	–	–	–
CNC(=O)c1ccc2ncc(C(=O)OCN(c3ccccc3)S(C)(=O)=O)c(Nc3ccc(OC)cc3)c2c1 [Example 8, (Methylsulfonyl(phenyl)amino)methyl 4-[(4-methoxyphenyl)amino]-6-(methylcarbamoyl)quinoline-3-carboxylate]	18	No effect	No effect	100	–	–	–	–	–
